Measured values from ChEMBL document CHEMBL5696442, “Discovery of type II inhibitors of TGFβ-activated kinase 1 (TAK1) and mitogen-activated protein kinase kinase kinase kinase 2 (MAP4K2)” (J Med Chem, 2015).
The source made the active and inactive calls. The calls are words filed in the database; no cut-off is given here.

Experiments:
[1] = system: MEF; assay: Inhibition of IL-1alpha induced p105 phosphorylation level in mouse MEF cells preincubated for 1 hr followed by IL-1 alpha stimulation and measured after 30 mins by Western blot analysis; assay type: functional, cell-based; settings: dose 0.01-10 µM
[2] = target: Death-associated protein kinase 3 (Homo sapiens) (UniProt O43293); assay: Inhibition of DAPK3 (unknown origin) at 10 uM by Ambit Kinomescan binding assay
[3] = target: Dual specificity tyrosine-phosphorylation-regulated kinase 1B (Homo sapiens) (UniProt Q9Y463); assay: Inhibition of DYRK1B (unknown origin) at 10 uM by Ambit Kinomescan binding assay
Sequence of Dual specificity tyrosine-phosphorylation-regulated kinase 1B (Homo sapiens) (Q9Y463 whole entry, looked up): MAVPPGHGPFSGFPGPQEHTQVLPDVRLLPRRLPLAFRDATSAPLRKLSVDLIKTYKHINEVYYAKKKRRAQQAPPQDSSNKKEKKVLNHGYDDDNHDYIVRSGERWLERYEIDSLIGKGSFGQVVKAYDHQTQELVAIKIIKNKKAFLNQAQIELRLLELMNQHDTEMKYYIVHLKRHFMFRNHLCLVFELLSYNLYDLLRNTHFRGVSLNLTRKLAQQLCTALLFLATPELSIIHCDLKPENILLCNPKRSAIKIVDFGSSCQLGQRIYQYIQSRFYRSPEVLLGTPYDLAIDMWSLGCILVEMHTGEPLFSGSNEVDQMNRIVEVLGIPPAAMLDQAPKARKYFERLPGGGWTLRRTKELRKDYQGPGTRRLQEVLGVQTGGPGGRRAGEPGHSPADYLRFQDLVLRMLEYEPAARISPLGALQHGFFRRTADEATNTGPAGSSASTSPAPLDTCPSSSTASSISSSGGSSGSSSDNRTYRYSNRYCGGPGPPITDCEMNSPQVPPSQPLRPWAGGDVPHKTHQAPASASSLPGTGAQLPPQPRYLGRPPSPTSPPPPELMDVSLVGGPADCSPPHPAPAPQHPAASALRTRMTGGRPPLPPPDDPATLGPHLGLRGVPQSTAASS

[4] = system: Mast/stem cell growth factor receptor Kit (Homo sapiens), P10721 [V559D,V654A]; assay: Inhibition of KIT V559D/V654A double mutant (unknown origin) at 10 uM by Ambit Kinomescan binding assay relative to control
[5] = target: Phosphatidylinositol 4-phosphate 3-kinase C2 domain-containing subunit beta (Homo sapiens) (UniProt O00750); assay: Inhibition of PIK3C2B (unknown origin) at 10 uM by Ambit Kinomescan binding assay
Sequence of Phosphatidylinositol 4-phosphate 3-kinase C2 domain-containing subunit beta (Homo sapiens) (O00750 whole entry, the tested form may be a part): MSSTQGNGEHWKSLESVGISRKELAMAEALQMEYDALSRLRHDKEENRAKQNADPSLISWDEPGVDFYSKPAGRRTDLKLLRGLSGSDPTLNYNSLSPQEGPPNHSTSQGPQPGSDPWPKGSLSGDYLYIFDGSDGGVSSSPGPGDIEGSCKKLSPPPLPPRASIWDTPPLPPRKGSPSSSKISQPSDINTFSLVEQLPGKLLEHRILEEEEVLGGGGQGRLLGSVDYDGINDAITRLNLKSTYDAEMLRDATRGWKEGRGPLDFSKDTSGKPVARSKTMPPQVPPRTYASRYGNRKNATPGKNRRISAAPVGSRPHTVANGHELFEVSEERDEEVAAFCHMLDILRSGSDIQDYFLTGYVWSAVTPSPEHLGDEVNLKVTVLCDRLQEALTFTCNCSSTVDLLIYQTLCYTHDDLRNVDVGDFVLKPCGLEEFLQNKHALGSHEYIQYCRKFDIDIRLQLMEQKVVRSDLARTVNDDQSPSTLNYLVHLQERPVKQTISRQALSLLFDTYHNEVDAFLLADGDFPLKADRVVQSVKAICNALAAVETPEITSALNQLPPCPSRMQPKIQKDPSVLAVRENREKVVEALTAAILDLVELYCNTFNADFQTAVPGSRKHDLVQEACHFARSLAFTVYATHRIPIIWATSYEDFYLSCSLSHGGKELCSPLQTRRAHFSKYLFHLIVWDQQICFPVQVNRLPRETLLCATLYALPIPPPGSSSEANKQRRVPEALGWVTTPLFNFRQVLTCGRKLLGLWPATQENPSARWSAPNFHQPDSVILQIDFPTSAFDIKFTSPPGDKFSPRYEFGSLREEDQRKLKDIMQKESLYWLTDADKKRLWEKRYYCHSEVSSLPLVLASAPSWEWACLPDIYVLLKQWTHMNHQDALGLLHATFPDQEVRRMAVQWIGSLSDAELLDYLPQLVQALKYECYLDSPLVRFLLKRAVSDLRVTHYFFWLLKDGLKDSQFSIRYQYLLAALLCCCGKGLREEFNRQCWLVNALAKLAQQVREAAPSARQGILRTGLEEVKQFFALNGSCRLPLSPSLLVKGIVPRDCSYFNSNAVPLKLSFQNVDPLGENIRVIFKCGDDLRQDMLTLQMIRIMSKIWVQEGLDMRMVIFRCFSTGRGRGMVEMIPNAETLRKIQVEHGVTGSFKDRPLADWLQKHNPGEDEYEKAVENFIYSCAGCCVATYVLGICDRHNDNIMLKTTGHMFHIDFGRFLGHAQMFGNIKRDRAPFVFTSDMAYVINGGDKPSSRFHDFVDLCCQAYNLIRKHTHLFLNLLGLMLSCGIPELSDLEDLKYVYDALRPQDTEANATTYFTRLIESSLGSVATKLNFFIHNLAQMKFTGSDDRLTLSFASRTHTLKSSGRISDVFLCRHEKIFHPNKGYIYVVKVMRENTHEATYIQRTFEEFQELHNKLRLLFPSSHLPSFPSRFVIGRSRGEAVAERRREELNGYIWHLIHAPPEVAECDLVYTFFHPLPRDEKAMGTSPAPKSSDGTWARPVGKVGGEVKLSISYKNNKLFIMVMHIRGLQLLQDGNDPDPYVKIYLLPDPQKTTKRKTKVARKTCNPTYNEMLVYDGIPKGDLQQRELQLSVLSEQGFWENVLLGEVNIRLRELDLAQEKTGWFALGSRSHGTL

[6] = target: Ribosomal protein S6 kinase alpha-2 (Homo sapiens) (UniProt Q15349); assay: Inhibition of C-terminal RPS6KA2 kinase domain 2 (unknown origin) at 10 uM by Ambit Kinomescan binding assay
[7] = target: Epidermal growth factor receptor (Homo sapiens) (UniProt P00533); assay: Inhibition of EGFR ACT labeling site harbouring ITDFGLAKLLGAEEK in human A-375 cells at 5 uM by KiNativ Profiling analysis relative to control; assay type: cell-based
[8] = target: T1, Mitogen-activated protein kinase kinase kinase kinase 2 (Homo sapiens) (UniProt Q12851); assay: Inhibition of MAP4K2 (GCK) Lys1 labeling site in human A-375 cells at 0.5 uM by KiNativ Profiling analysis relative to control; assay type: cell-based
T1 sequence (whole entry): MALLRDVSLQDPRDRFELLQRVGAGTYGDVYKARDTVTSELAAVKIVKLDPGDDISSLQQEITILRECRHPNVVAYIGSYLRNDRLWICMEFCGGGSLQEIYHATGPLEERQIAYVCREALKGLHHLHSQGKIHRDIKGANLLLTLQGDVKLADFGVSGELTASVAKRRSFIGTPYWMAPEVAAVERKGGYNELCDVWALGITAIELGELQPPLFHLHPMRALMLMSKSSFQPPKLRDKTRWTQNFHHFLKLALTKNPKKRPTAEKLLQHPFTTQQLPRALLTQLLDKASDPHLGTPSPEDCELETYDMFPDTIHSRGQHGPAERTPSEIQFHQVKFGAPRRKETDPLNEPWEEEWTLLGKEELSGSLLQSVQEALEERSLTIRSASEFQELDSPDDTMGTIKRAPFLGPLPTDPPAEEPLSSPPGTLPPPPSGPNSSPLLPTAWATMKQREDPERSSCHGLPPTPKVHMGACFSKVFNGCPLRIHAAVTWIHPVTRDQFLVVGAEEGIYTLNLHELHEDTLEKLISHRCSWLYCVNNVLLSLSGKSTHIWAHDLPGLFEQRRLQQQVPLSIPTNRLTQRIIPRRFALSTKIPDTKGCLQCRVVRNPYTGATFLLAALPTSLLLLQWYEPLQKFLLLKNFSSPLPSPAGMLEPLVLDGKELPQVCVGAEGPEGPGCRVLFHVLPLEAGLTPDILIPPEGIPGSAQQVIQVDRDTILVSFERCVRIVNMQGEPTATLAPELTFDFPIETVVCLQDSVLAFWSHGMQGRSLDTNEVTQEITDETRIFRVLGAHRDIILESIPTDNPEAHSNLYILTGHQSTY

[9] = target: Serine/threonine-protein kinase 26 (Homo sapiens) (UniProt Q9P289); assay: Inhibition of MST4 Lys1 labeling site in human A-375 cells at 0.05 uM by KiNativ Profiling analysis relative to control; assay type: cell-based
Sequence of Serine/threonine-protein kinase 26 (Homo sapiens) (Q9P289 2-416 limits assumed): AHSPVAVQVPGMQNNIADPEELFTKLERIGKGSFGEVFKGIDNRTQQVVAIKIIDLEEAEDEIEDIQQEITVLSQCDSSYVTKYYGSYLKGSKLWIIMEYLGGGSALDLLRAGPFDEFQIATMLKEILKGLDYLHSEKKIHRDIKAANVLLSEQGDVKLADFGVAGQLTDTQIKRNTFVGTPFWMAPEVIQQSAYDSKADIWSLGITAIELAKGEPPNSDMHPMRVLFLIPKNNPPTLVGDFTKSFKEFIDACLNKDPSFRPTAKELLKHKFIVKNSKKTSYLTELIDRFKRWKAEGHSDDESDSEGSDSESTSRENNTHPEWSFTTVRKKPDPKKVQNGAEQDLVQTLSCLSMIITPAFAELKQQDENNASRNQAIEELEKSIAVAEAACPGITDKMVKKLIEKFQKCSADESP

[10] = target: Tyrosine-protein kinase Fes/Fps (Homo sapiens, UniProt P07332); assay: Inhibition of FES K1 labeling site in human Huh-7 cells at 10 uM by KiNativ Profiling analysis relative to control; assay type: cell-based
Sequence of Tyrosine-protein kinase Fes/Fps (P07332 whole entry): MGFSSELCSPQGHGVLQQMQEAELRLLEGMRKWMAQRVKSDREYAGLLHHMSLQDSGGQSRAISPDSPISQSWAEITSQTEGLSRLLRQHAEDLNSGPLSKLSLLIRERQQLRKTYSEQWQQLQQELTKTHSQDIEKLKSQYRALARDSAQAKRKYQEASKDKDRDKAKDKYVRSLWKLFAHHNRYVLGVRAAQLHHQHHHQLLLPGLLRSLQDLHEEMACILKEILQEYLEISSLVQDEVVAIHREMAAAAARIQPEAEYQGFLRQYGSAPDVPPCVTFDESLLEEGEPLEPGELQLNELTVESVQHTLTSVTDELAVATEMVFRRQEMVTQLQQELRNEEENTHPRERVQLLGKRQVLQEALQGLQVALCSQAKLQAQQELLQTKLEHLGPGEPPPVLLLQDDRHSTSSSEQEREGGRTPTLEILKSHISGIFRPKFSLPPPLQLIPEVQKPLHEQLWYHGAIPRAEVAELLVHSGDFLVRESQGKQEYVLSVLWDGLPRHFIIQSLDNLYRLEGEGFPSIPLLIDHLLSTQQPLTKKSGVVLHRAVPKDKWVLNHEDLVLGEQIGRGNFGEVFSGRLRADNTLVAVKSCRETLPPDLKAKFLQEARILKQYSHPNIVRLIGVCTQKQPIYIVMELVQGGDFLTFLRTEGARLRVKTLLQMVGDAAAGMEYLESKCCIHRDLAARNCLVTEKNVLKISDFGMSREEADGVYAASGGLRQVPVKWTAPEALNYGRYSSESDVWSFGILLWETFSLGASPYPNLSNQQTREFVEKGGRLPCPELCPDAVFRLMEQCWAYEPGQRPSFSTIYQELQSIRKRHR

[11] = target: DNA-dependent protein kinase catalytic subunit (Homo sapiens) (UniProt P78527); assay: Inhibition of PRKDC ATP labeling site harbouring KGGSWIQEINVAEK in human Huh-7 cells at 10 uM by KiNativ Profiling analysis relative to control; assay type: cell-based
[12] = target: Serine/threonine-protein kinase 4 (Homo sapiens) (UniProt Q13043); assay: Inhibition of MST1 Lys2 labeling site harbouring IHRDIKAGNILLNTEGHAK in human Huh-7 cell lysate at 1 uM by KiNativ Profiling analysis relative to control
Sequence of Serine/threonine-protein kinase 4 (Homo sapiens) (Q13043 whole entry, looked up): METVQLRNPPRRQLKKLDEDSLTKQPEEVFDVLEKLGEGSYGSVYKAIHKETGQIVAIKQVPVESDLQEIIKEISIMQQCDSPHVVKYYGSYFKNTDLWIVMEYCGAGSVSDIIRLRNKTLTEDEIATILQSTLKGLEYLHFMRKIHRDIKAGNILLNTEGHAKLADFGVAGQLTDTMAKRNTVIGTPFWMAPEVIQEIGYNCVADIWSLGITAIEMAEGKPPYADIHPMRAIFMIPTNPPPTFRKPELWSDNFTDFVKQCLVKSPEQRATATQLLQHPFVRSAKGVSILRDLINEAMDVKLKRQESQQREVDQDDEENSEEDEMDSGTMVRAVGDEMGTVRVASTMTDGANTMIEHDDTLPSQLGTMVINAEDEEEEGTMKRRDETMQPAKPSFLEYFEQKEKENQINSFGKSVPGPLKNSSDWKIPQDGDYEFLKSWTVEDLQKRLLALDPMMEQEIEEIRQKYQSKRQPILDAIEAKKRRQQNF

[13] = system: Epidermal growth factor receptor (Homo sapiens), P00533 [UNDEFINED MUTATION]; settings: dose 1.0 µM
[14] = target: Serine/threonine-protein kinase PLK1 (Homo sapiens) (UniProt P53350); assay: Inhibition of PLK1 Lys2 labeling site in human A-375 cells at 0.5 uM by KiNativ Profiling analysis relative to control; assay type: cell-based
[15] = target: T2, Scaffold protein ILK (Homo sapiens) (UniProt Q13418); assay: Inhibition of ILK Lys1 labeling site in human A-375 cells at 0.05 uM by KiNativ Profiling analysis relative to control; assay type: cell-based
T2 sequence (whole entry): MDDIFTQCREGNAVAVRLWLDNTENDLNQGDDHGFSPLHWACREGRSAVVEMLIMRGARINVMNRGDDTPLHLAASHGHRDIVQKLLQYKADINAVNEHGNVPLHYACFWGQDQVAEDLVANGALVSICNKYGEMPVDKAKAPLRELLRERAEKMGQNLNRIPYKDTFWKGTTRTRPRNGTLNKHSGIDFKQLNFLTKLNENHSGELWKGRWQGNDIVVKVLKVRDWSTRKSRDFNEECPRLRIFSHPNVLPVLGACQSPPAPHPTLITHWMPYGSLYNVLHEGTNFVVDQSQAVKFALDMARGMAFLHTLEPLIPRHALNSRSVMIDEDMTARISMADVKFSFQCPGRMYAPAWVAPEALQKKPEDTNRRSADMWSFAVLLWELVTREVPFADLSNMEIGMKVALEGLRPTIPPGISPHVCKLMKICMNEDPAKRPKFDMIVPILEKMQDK

[16] = target: Dual specificity protein kinase CLK1 (Homo sapiens) (UniProt P49759); assay: Inhibition of CLK1 (unknown origin) at 1 uM by Ambit Kinomescan binding assay relative to control; values are per cent of control
[17] = target: Serine/threonine-protein kinase OSR1 (Homo sapiens) (UniProt O95747); assay: Inhibition of OSR1 (unknown origin) at 1 uM by Ambit Kinomescan binding assay relative to control; values are per cent of control
Sequence of Serine/threonine-protein kinase OSR1 (Homo sapiens) (O95747 whole entry, looked up): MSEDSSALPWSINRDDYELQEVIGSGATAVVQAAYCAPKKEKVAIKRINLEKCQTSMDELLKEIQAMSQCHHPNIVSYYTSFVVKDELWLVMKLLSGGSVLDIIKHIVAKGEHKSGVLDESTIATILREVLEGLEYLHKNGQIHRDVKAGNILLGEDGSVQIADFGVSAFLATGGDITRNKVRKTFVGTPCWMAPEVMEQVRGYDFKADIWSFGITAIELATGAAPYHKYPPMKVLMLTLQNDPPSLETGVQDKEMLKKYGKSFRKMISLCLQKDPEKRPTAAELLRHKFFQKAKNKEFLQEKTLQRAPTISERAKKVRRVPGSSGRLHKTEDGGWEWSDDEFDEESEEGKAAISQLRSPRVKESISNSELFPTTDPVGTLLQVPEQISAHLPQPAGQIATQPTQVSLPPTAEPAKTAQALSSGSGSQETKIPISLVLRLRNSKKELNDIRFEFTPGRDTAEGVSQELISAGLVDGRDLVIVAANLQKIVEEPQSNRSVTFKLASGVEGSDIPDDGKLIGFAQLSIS

[18] = target: Cyclin-dependent kinase-like 1 (Homo sapiens) (UniProt Q00532); assay: Inhibition of CDKL1 (unknown origin) at 1 uM by Ambit Kinomescan binding assay relative to control; values are per cent of control
Sequence of Cyclin-dependent kinase-like 1 (Homo sapiens) (Q00532 whole entry): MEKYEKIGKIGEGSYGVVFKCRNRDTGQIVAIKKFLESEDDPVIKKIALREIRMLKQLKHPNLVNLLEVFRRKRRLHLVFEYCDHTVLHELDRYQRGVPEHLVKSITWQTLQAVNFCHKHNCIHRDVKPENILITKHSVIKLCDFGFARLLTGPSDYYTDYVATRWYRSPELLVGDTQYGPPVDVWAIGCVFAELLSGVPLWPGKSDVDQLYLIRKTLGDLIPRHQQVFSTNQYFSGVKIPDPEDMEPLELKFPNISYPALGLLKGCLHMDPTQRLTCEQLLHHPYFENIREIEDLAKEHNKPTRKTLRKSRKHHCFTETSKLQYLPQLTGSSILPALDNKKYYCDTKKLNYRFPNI

With `CCN1CCN(Cc2ccc(NC(=O)c3ccc(C)c(Oc4ccnc5[nH]ccc45)c3)cc2C(F)(F)F)CC1` the inhibition [1] was “Dose-Dependent Effect”, the inhibition [2] was “inactive” and the inhibition [3] was “inactive”. For the same molecule, the inhibition [4] was 2.7%, the inhibition [5] was “inactive” and the inhibition [6] was “inactive”. It also gave an inhibition [7] of 5.4%, an inhibition [8] greater than 99.5% and an inhibition [9] of -8.3%. The inhibition [10] was 72.6% and the inhibition [11] was 0.2%.

`CNc1cc(Oc2cc(C(=O)Nc3cc(N4CCN(C)CC4)cc(C(F)(F)F)c3)ccc2C)ncn1` gave an inhibition [12] of 14.4%.

In the case of `CCN1CCN(Cc2ccc(NC(=O)c3ccc(C)c(/C=C/c4cnc5[nH]ccc5c4OC)c3)cc2C(F)(F)F)CC1`, the inhibition [13] is reported as 0.5%, the inhibition [14] is reported as 13.2% and the inhibition [15] is reported as 3.9%. The residual activity [16] was 59%, the residual activity [17] was 100% and the residual activity [18] was 100%.
